Experimental data: patent publication US7435754B2, “Laulimalide microtubule stabilizing agents” (Utah State University, priority 2000, dated 2008)
Like-named read-outs stand apart in the source and are kept apart here.

Assays:
A-10 cells [1] = assay: Immunofluorescence of cellular microtubules and mitotic spindles; type: cell-based, rat; settings: for sensitivity of stabilized cellular microtubules to vinblastine / morphological effects on cellular microtubules: A-10 cells; for effect on mitotic spindles: A-10 cells and SK-OV-3 cells; for morphological effects on cellular microtubules: 18 hours, laulimalide 2 μM, isolaulimalide 2-20 μM, paclitaxel 1-20 μM
Experimental: A-10 cells were grown to 70-85% confluence on glass coverslips in BME supplemented with 10% FBS. Drug compounds in PBS were added to the indicated final concentrations and cells were incubated for an additional […].
(§1) For the staining of microtubules and intermediate filaments, the cells were fixed with cold methanol for 5 minutes, blocked for 20 minutes with PBS containing 10% calf serum to block nonspecific binding sites, and incubated at 37° C. for 90 min with monoclonal anti-β-tubulin at the dilutions recommended by the manufacturer. Bound primary antibodies were subsequently visualized by a one hour incubation with fluorescein(FITC)-conjugated sheep antimouse IgG (F-3008; Sigma). The coverslips were washed, stained with 0.1 μg/mL DAPI for 10 minutes, mounted on microscope slides and the fluorescence patterns were examined and photographed using a Zeiss Axioplan microscope equipped with epifluorescence optics for fluorescein and DAPI.
A-10 cells were treated with laulimalide, isolaulimalide, or paclitaxel for 18 hours and the morphological effects on microtubules examined by indirect immunofluorescence techniques.

A-10 cells [2] = assay: Micronuclei formation, DAPI staining; type: cell-based, rat; settings: for cells exhibiting micronuclei: A-10 cells, 0.02-2 μM, 18 hours; for effect on nuclear structure: A-10 and SK-OV-3 cells, wide range of concentrations
Experimental: FIG. 1 is a graphic representation comparing the effects of Laulimalide and paclitaxel on micronuclei formation, in which A-10 cells were treated for 18 hours with Laulimalide or paclitaxel, the cells were fixed and nuclei were visualized by DAPI staining;
as §1
The effects of laulimalide on nuclear structure are visible: The normal rounded shape of the nucleus, which is devoid of microtubules, can be detected, whereas in laulimalide-treated cells this distinct microtubule-free area containing the discrete central nucleus was lost and only vesicle-like areas devoid of microtubules remained. […] Similar nuclear changes occurred with isolaulimalide. Paclitaxel also initiated the formation of micronuclei, as has been reported by others.
The difference between the two drugs was statistically significant at all five concentrations tested (P<0.0001).

[3] = system: SK-OV-3 human ovarian carcinoma cell line; assay: Inhibition of cell proliferation, SRB assay, SK-OV-3; type: cell-based; settings: read-out: IC50 for inhibition of cell proliferation
Experimental: (§2) The A-10 rat aortic smooth muscle and SK-OV-3 human ovarian carcinoma cell lines were obtained from the American Type Culture Collection (Manassas, Va.) and were cultured in BME containing 10% FBS and 50 μg/mL gentamycin sulfate. A sub-line of SK-OV-3 selected for resistance to vinblastine (SKVLB-1) was provided by Dr. Victor Ling (British Columbia Cancer Center, Vancouver, British Columbia) and was maintained in BME containing 10% FBS and 50 μg/mL gentamycin sulfate. The MDA-MB-435 human mammary adenocarcinoma cell line was obtained from Dr. Mai Higazi (Georgetown University, Washington, D.C.), and was maintained in Richters medium containing 10% FBS and 50 μg/mL gentamycin sulfate. Vinblastine was added to a final concentration of 1 μg/mL to SKVLB-1 cells 24 hours after passage to maintain selection pressure for P-glycoprotein-overexpressing cells.
(§3) The IC50 for inhibition of cell proliferation was determined by measuring cell-associated protein after drug treatment using the sulforhodamine B assay.
(§4) The early literature on laulimalide reported that it was a cytotoxin, but without specifying a mechanism. Experiments were conducted to determine the IC50 values for laulimalide and isolaulimalide in two drug-sensitive cell lines, MDA-MB-435 and SK-OV-3, and in a multidrug-resistant cell line, SKVLB-1. Cells were treated with varying concentrations of the drugs for 48 hours, and cell-associated protein was determined using the SRB assay. The IC50 for each compound was calculated for each cell line.

[4] = system: A-10 rat aortic smooth muscle cell line; assay: Inhibition of cell proliferation, A-10 nontransformed line; type: cell-based
Experimental: as §2, §3
The IC50 for inhibition of proliferation was also determined in the A-10 cell line, a nontransformed line that was used to show the effects of microtubule-stabilizing agents on cellular structures. […]

bovine brain tubulin = assay: Tubulin polymerization in vitro; type: biochemical; settings: for EC50: Table 2; for effect on tubulin polymerization (in words): absence of polymerization promoters
From the text: FIG. 3 collectively is a graphic representation comparing the effects of Laulimalide and paclitaxel on tubulin polymerization, in which the polymerization of bovine brain tubulin was monitored, and in which:
One characteristic of the microtubule-stabilizing agents paclitaxel, discodermolide, epothilones A and B, and eleutherobin is the ability of these agents to initiate the polymerization of tubulin in the absence of polymerization promoters, such as glycerol. Studies were undertaken to determine the effects of laulimalide on tubulin polymerization.
Samples of the tubulin polymer formed were examined by electron microscopy to determine whether the increase in turbidity measured during the polymerization experiments was due to the formation of microtubule-like polymers or the formation of other structures.

[5] = system: SKVLB-1 cell line (P-glycoprotein-overexpressing sub-line of SK-OV-3); assay: Inhibition of cell proliferation, SRB assay, multidrug-resistant SKVLB-1; type: cell-based, human; settings: for IC50: Homo sapiens, read-out: IC50 for inhibition of cell proliferation; for Resistance Factor: drug-resistant SKVLB-1 versus parental SK-OV-3 IC50
Experimental: as §2, §3, §4

[6] = system: MDA-MB-435 human mammary adenocarcinoma cell line; assay: Inhibition of cell proliferation, sulforhodamine B (SRB) assay, MDA-MB-435; type: cell-based; settings: for IC50: Homo sapiens
Experimental: as §2, §3, §4

MDA-MB-435 cells = assay: Cell cycle distribution by flow cytometry; type: cell-based, human; settings: MDA-MB-435, 20 nM
Experimental: FIG. 2 collectively is a graphic representation comparing the effects of Laulimalide on cell cycle distribution, wherein log phase growth cultures of MDA-MB-435 cells were treated, the cells were fixed, stained, and analyzed on a Coulter EPICS XL-MCL flow cytometer and plotted as events versus propidium iodide fluorescene intensity, and in which:
A common characteristic of anti-microtubule agents is their ability to initiate mitotic arrest. […] This is consistent with the effects of other antimicrotubule agents, where disruption of microtubule dynamics prevents normal mitotic progression and leads to mitotic arrest. […] The mitotic cells were rounded, and the spindles formed a circular pattern with spindle microtubules radiating outward from a microtubule-free core in the center of the cell. In the mitotic cells, the nuclear membranes were not apparent, and the chromatin was condensed and aligned in a circular pattern.
The ultimate mechanism of action of many cytotoxic cancer chemotherapeutic agents is the initiation of pathways of gene and protein expression leading to apoptosis. Antimicrotubule drugs including paclitaxel, vinblastine, and cryptophycin 1 initiate apoptosis both in vitro and in vivo. […] The loss of cellular DNA is detected by the appearance of the subdiploid peak when apoptotic cells are analyzed by flow cytometry. […]

caspase 3 / PARP = assay: Caspase 3 activation and PARP proteolysis, immunoblot of cell lysates; type: cell-based; settings: cells treated 42 and 48 hours
From the text: During apoptosis, specific cysteine proteases called the caspases are activated. Activation of the caspase cascade leads to the proteolytic degradation of specific cellular proteins. The activation of caspase 3 and the proteolysis of the DNA repair enzyme PARP, a downstream substrate of caspase 3, were examined in cell lysates from laulimalide-treated cells. Activation of caspase 3 leads to the loss of the 32 kDa proenzyme and the formation of the activation products p17 and p12. […] The loss of the p32 proenzyme is seen at 48 hours. The specific proteolysis of PARP by caspase 3 leads to the formation of two products, an 89 kDa COOH-terminal fragment and a 24 kDa N-terminal fragment. The proteolysis of PARP and the appearance of the 89 kDa degradation product coincided with the activation of caspase 3.

[7] = MDA-MB-435, 48 h, read-out: IC50 for inhibition of cell proliferation

SMILES | sensitivity of stabilized cellular microtubules to vinblastine (A-10 cells [1]) | effect on mitotic spindles (A-10 cells [1]) | morphological effects on cellular microtubules (A-10 cells [1]) | cells exhibiting micronuclei (A-10 cells [2]) | polymerization of tubulin at 0° C. (bovine brain tubulin) | EC50 (bovine brain tubulin) | Resistance Factor [5] | effect on nuclear structure (A-10 cells [2]) | IC50 ([3]; SK-OV-3, 48 h) | effect on tubulin polymerization (in words) (bovine brain tubulin) | IC50 ([5]; SKVLB1, 48 h) | IC50 [6, 7] | further results
CC(=O)O[C@H]1C(=O)[C@@]2(C)[C@H]([C@H](OC(=O)c3ccccc3)[C@]3(O)C[C@H](OC(=O)[C@H](O)[C@@H](NC(=O)c4ccccc4)c4ccccc4)C(C)=C1C3(C)C)[C@]1(OC(C)=O)CO[C@@H]1C[C@@H]2O [Paclitaxel, reference compound] | resistant to vinblastine-induced depolymerization | Abnormal mitotic spindles | formation of a highly organized array of microtubules, some of which formed thick microtubule bundles | approximately 40% | Neither paclitaxel nor laulimalide promoted the polymerization | 1.44 ± 0.06 µM | >58,480 | – | – | – | – | – | IC50 ([3]; SK-OV-3, 48 hours, SRB, mean ± SD): 0.00171 ± 0.00107 µM; IC50 ([4]; A10, A-10 cell line, read-out: IC50 for inhibition of proliferation): 40 µM; IC50 ([5]; SKVLB1, SKVLB (SKVLB-1), 48 hours, SRB, mean ± SD): > 100 µM; inhibition of the SKVLB-1 cell line ([5]; concentrations up to 100 μM): ≤ 70%; IC50 ([6]; MDA-MB-435, 48 hours, SRB, mean ± SD, read-out: IC50 for inhibition of cell proliferation): 0.00102 ± 0.00025 µM
C=C1C[C@H](C)C[C@@H]2CC=C[C@@H](C/C=C\C(=O)OC3CC(OC3/C=C/[C@@H]3CC(C)=CCO3)[C@@H](O)[C@@H](O)C1)O2 (stereo partly drawn) [Isolaulimalide, isolaulimalide] | resistant to vinblastine-induced depolymerization | Abnormal mitotic spindles | increase in the density of cellular microtubules, but no microtubule bundles were present | – | – | – | 1.03 | formation of multiple micronuclei | 2.57 µM | stimulated tubulin polymerization | 2.65 µM | 1.97 µM | IC50 values, inhibition of cell proliferation (in words) ([6]; cell lines of Table 1): low μM range
C=C1C[C@H](C)C[C@@H]2CC=C[C@@H](C/C=C\C(=O)OC([C@@H](O)/C=C/[C@@H]3CC(C)=CCO3)C[C@@H]3OC3[C@@H](O)C1)O2 (stereo partly drawn) [Laulimalide, laulimalide] | resistant to vinblastine-induced depolymerization | Abnormal mitotic spindles | bundles of short tufts of microtubules | approximately 60% | Neither paclitaxel nor laulimalide promoted the polymerization | 4.32 ± 0.4 µM | 105 | formation of multiple micronuclei | 0.0115 ± 0.00053 µM | stimulated tubulin polymerization | 1.21 µM | 0.00574 ± 0.00058 µM | subdiploid peak (apoptosis) (MDA-MB-435 cells; 18 hours): doubling of the subdiploid peak; effect on cell cycle (MDA-MB-435 cells; within nine hours): cell cycle arrest in G2-M; IC50 ([4]; A10, read-out: IC50 for inhibition of proliferation): 51 µM; kinetics of tubulin formation relative to 20 μM paclitaxel (bovine brain tubulin; 20 μM): twice as fast; additional tubulin polymer formed relative to paclitaxel (bovine brain tubulin; 20 μM of each drug): approximately 30%; stability of tubulin polymers formed (bovine brain tubulin; cold and CaCl2): insensitive to cold and CaCl2-induced depolymerization; caspase 3 activation and PARP cleavage (caspase 3 / PARP): Caspase 3 was activated and PARP proteolytically cleaved; IC50 ([6]; MDA-MB-435, read-out: IC50 values, inhibition of cell proliferation (summary of Table 1)): 0.005 to 0.012 µM
